Tests used:
LLC/2 cells = experiment: Cell viability WST-1, LLC/2; format: cell-based; details: confluent LLC/2, 24 h at 37°C
Method: (§1) Once they had reached confluency, cells were kept for 24 hours in medium supplemented with 0.5% FCS (LLC/2 and 3T3 cells) or 2.5% FCS (HUVEC and HMVEC-d cells), in the presence of COB223 at different concentrations. WST-1 assay (Roche Diagnostic, Meylan, France) was then performed according to the manufacturer's instructions.

HMVECd cells [1] = experiment: Scratch wound closure assay, primary HMVECd; format: cell-based; details: Homo sapiens, Endothelial cell; primary dermal microvascular endothelial cells, 10% FCS
Method: Figure 3 Endothelial cell-specific inhibition of wound closure by COB223 The dose-dependent effect of COB223 on cellular wound closure was measured as described in Material and Methods on either HMVECd or on 3T3 cells. The results are expressed as the percentage of wound closure (with closure observed in the presence of 10% FCS taken as 100%) : mean values +/− SD from three experiments.
(§2) Confluent cell monolayers were wounded with a plastic pipet tip, washed gently with phosphate buffer saline (PBS) and treated with complete media containing molecules, as indicated. Cells were placed at 37°C into the incubator and photographed at indicated times. Quantitation of closure of the monolayer was performed using the NIH Image J program (http://rsbweb.nih.gov/ij/). Results are expressed as percentage of wound closure at t = 24 h as compared to the initial wound at t = 0 h.

src phosphorylation = src phosphorylation in HUVECs; format: cell-based, human; details: data not shown
3T3 cells = experiment: Cell viability WST-1, 3T3; format: cell-based; details: confluent 3T3, 24 h at 37°C
Method: as §1

ERK phosphorylation = ERK phosphorylation in CCL-39 fibroblasts with estrogen-responsive active Raf; format: cell-based; details: estradiol 3 h, 25 μM COB223 15 or 30 min
Method: Figure 11 Effect of COB223 on mitogenic or oncogenic activation of the Ras /MEK/ERK signaling pathway (A) Serum-starved HUVEC cells were incubated for 15 min in the presence of 10 ng/mL VEGF-A and in the absence or the presence of 25 μM COB223. The phosphorylations of PLCγ on tyrosine 783, of Raf on serine 338 or on serine 259 and of ERK1/2 were then analyzed by Western blot analysis of the cell lysates as described in Material and Methods. Western blots for total PLCγ, Raf and ERK1/2 were used as loading controls. (B) MCF10A cells overexpressing an oncogenic version of Ras (MCF10A-RasG12V) were treated for the indicated periods of time by 25 μM COB223. Total ERK1/2 and phospho-ERK1/2 were then visualized by Western blotting of the cell extracts. Non-treated regular MCF10A cells were analyzed as a control (first lane). (C) CCL-39 fibroblasts expressing a constitutively active Raf in an estrogen-responsive manner were stimulated for 3 h with estradiol and treated for 15 or 30 min with 25 μM COB223. Total ERK1/2 and phospho-ERK1/2 were then visualized by Western blotting of the cell extracts. Non-treated cells were analyzed as a control (left lanes).

[2] = Tolerance in treated LLC/2 tumor-bearing mice; format: in vivo, mouse; details: two week-long treatment with up to 16 mg/kg i.p.
Method: We chose this model because of its rapid growth in syngenic mice and its strong dependence on angiogenesis. LLC/2 cells (10^6 in 50 μL medium) were subcutaneously injected into the right flank of […] mice. Seven days after tumor inoculation, mice were given an intraperitoneal (i.p.) injection of either solvent (1.7% DMSO) or COB223 every other day. Tumor size was measured with calipers, and the volume was calculated according to the formula (L*w^2)/2 where L and […] stand for length and width respectively. All mice were killed 21 days after tumor grafting.

HMVECd cells [3] = experiment: Cell viability WST-1, HMVECd; format: cell-based, human; details: confluent HMVECd, 24 h at 37°C
Method: as §1

PKCβI = PKCβI (Homo sapiens, UniProt P05771); experiment: In vitro kinase assay PKCβI; format: biochemical; details: concentrations up to 50 μM
Method: We first wondered whether COB223 required to be internalized to exert its biological effect. For this, we synthesized a covalent complex between BSA and COB223 and purified it. […] In vitro kinase assays were performed with a panel of purified protein-kinases involved in mitogenic signaling, including VEGFR2, FGFR1, FGFR2, PDGFRß, Met, Raf, MEK1, ERK1, ERK2, PKCα, PKCβI, PKCβII, PKCζ as indicated in Table 2. […] We then analyzed the effect of COB223 on VEGF-induced phosphorylations of VEGFR2, MEK and ERK1/2 (Figure 9). […] (Figure 9A, 9B). […] It was also specific of the p42/p44 MAP kinase pathway as activation of p38 MAP kinase phosphorylation in HUVEC cells by VEGF or serum was unaffected by COB223 (data not shown). The activation of src phosphorylation by VEGF in HUVECs was also unaffected by COB223 (data not shown).

HMEC-GFP cells = experiment: Scratch wound closure assay, HMEC-GFP; format: cell-based, human; details: Homo sapiens
Text: In order to adapt the endothelial scratch wounding assay to the constraints of high throughput screening, we decided to use an endothelial cell line rather than primary cultures for the sake of reproducibility. Since angiogenesis is triggered by capillary endothelial cells, we selected the HMEC-1 cell line which consists of human dermal microvascular endothelial cells stably expressing SV40 […] antigen. We infected this cell line with GFP-encoding retroviral particles and selected one clone (thereafter named HMEC-GFP) that presented a high level of fluorescence and a strong proliferation rate (doubling time in the presence of serum: 22 h). We controlled that GFP expression was stable over at least 50 passages and that these cells still expressed endothelial markers such as VE-cadherin and CD31. In a standard assay, HMEC-GFP cells were grown until confluence in 96-well plates in the presence of serum, scratched with the multi-tip dispenser of the HTS automat, gently rinsed twice to eliminate detached cells and cell debris that could liberate inflammatory and potentially angiogenic cytokines, and incubated for 24 h in the presence of serum and the compounds to be tested. Each well was photographed at time 0 h (after wounding) and 24 h under a motorized epifluorescence microscope and the digitized images were analyzed using Image J to determine the percentage of wound closure (Figure 1A, 1B). Under our standard conditions, the closure rate was 72 ± 4% in the positive controls and 27 ± 4.% in the negative controls.
as §2

Chain of PKCβI (P05771 whole entry): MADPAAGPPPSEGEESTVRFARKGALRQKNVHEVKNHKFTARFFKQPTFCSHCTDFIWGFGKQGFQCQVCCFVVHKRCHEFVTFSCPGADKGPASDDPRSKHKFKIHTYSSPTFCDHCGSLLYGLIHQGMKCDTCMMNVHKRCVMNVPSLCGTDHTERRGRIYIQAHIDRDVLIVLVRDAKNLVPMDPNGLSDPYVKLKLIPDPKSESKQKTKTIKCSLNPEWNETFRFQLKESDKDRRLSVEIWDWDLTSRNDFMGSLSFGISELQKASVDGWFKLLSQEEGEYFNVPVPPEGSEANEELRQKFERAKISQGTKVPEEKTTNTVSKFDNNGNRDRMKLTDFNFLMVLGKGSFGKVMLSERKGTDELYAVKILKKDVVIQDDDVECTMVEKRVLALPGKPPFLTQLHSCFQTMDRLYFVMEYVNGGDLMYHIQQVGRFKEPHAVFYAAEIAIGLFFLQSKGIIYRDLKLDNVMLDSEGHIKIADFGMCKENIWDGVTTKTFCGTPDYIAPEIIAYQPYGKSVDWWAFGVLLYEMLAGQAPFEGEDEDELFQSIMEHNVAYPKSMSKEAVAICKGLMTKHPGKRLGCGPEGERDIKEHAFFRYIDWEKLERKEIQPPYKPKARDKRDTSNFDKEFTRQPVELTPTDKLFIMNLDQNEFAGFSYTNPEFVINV

CN(C)c1cccc2c(S(=O)(=O)NCCCN3CCN(CCCNC(=O)OC(C)(C)C)CC3)cccc12 [COB223, tert-Butyl 3-(4-(3-(5-(dimethylamino)naphthalene-1-sulfonamido)propyl)piperazin-1-yl) propylcarbamate]
cytotoxic concentrations (LLC/2 cells): > 50 µM | EC50 (HMVECd cells [1]): 25 µM | activation of src phosphorylation by VEGF (src phosphorylation): unaffected | cytotoxic concentrations (3T3 cells): > 50 µM | ERK phosphorylation induced by estrogen (ERK phosphorylation): did not inhibit | tolerance, adverse effects [2]: no adverse effect was observed | cytotoxic concentrations (HMVECd cells [3]): > 50 µM | kinase inhibition (PKCβI): None of them was inhibited | EC50 (HMEC-GFP cells; as quoted): 5 µM | IC50 (HMEC-GFP cells; wound closure after 24 h, 10% FCS, tested 3.125 μM to 100 μM): 5 µM
